System in the first data set: not given
Experiment: not given
Details: not given
The compound `C[C@H](NC(=O)[C@H]1C[C@@H]1c1ccccc1)c1ccc(OC2COC2)nc1` [Compound 19, (1S,2S)-2-Phenyl-cyclopropanecarboxylic acid {(S)-1-[6-(oxetan-3-yloxy)-pyridin-3-yl]-ethyl}-amide] registered a melting point of 151 to 153 °C.

Compound `C[C@H](NC(=O)[C@H]1C[C@@H]1c1ccccc1)c1ccc(OCC#N)nc1` [Compound 20, (1S,2S)-2-Phenyl-cyclopropane carboxylic acid [(S)-1-(6-cyanomethoxy-pyridin-3-yl)-ethyl]-amide] came in with a melting point of 163 to 165 °C.

For the next data set, the target named is T1, human α7 receptor (Homo sapiens, UniProt P36544).
T1 construct: host or cells: rat GH4C1 cell line
T1 sequence (P36544 23-502): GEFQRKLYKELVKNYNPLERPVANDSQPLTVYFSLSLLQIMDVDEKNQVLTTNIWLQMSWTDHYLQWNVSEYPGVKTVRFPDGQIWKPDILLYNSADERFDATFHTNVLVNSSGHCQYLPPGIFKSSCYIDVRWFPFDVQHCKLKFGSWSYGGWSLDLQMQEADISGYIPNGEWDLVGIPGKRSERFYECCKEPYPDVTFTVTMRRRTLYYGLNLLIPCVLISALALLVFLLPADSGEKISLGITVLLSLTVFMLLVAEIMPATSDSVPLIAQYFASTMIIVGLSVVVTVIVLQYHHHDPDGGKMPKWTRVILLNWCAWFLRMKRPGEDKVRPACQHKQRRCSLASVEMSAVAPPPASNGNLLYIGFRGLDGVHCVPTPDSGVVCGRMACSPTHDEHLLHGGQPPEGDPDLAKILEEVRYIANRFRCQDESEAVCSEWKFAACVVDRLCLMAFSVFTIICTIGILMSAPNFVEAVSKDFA
Put plainly: α7 NNR flux assay (FDSS Ca assay, Calcium-4 dye, positive allosteric modulation of acetylcholine response). It is filed as cell-based. The settings on record: human α7 receptor stably expressed in rat GH4C1 cell line; acetylcholine 20 μM (~EC100); % modulation relative to reference PNU-120596 set to 100%. The procedure: The nicotinic acetylcholine receptor α7 is a calcium-permeable ion channel, whose activity can be measured by over expression in mammalian cells or oocytes in this version of the assay, the human α7 receptor is stably expressed in the rat GH4C1 cell line. The assay was used to identify positive allosteric modulators (PAMs) of the α7 receptor. Activation of the channel was measured by loading cells with the calcium-sensitive fluorescent dye Calcium-4 (Assay kit from Molecular Devices), and then measuring real-time changes in fluorescence upon treatment with test compounds.
The cell line ChanClone GH4C1-nAChRalpha7 from Genionics was seeded from frozen stock in 384-well plates in culture media 2-3 days before experiment to form an approximately 80% confluent layer on the day of experiment.
Two or three days before the experiment the cells were seeded in 384 well plates from Greiner bio-one (781946, CELLCOAT, Poly-D-Lysine, black, μClear).
The cells were seeded in 384 well plates with 30 μL/well (30000 cells/well) while stirring the cell suspension or otherwise preventing the cells from precipitating.
The loading buffer was 5% v/v Calcium-4 Kit and 2.5 mM Probenecid in assay buffer.
Culture media were removed from the cell plates and 20 μL loading buffer was added in each well. The cell plates were placed in trays and incubated 90 minutes in the incubator (37° C.). Thereafter the plates were incubated 30 minutes at room temperature, still protected from light.
The assay buffer was HBSS with 20 mM HEPES, pH 7.4 and 3 mM CaCl2.
200 nL 10 mM compound solution in DMSO was diluted in 50 μL assay buffer. The final test concentrations in the cell plates were 20-10-5-2.5-1:25-0.625-0.312-0.156-0.078-0.039 μM. Assay buffer and 3 μM PNU-120596 were used for control.
The agonist acetylcholine was added to a final concentration of 20 μM (˜EC100).
In the FDSS7000 the Ex480-Em540 was measured with 1 second intervals. The baseline was made of 5 frames before addition of test compounds, and 95 frames more were made before addition of acetylcholine. The measurement stopped 30 frames after the 2nd addition. Raw data for each well were collected as “the maximum fluorescence count” in the interval 100-131 seconds and as “the average fluorescence count” in the interval 96-100 seconds. The positive allosteric modulation in the 2nd addition was the enhancement of agonist response with test compound compared to agonist alone.
Results were calculated as % modulation of test compound compared to the reference PNU-120596 set to 100%.
Turning to `C[C@H](NC(=O)[C@H]1C[C@@H]1c1ccccc1)c1ccc(OC2COC2)nc1` [Compound 19, (1S,2S)-2-Phenyl-cyclopropanecarboxylic acid {(S)-1-[6-(oxetan-3-yloxy)-pyridin-3-yl]-ethyl}-amide], the EC50 was determined as 2400 nM.

In the case of `C[C@H](NC(=O)[C@H]1C[C@@H]1c1ccccc1)c1ccc(OCC#N)nc1` [Compound 20, (1S,2S)-2-Phenyl-cyclopropane carboxylic acid [(S)-1-(6-cyanomethoxy-pyridin-3-yl)-ethyl]-amide], the concentration giving a half-maximal response (EC50) is 2000 nM.

On to `CCCOc1ccc([C@H](CO)NC(=O)[C@H]2C[C@@H]2c2cccc(F)c2)cn1` [Compound 29, (1S,2S)-2-(3-Fluoro-phenyl)-cyclopropanecarboxylic acid [(R)-2-hydroxy-1-(6-propoxy-pyridin-3-yl)-ethyl]-amide], for which the EC50 was 860 nM.

With `[2H]C([2H])([2H])COc1ccc([C@H](CO)NC(=O)[C@H]2C[C@@H]2c2ccccc2)cn1` [Compound 31, (1S,2S)-2-Phenyl-cyclopropanecarboxylic acid [(R)-1-(6-(2,2,2-d3)-ethoxy-pyridin-3-yl)-2-hydroxy-ethyl]-amide], the EC50 amounted to 1700 nM.

As to `[2H]C([2H])(C)Oc1ccc([C@H](CO)NC(=O)[C@H]2C[C@@H]2c2cccc(F)c2)cn1` [Compound 32, (1S,2S)-2-(3-Fluoro-phenyl)-cyclopropanecarboxylic acid [(R)-1-(6-(1,1-d2)-ethoxy-pyridin-3-yl)-2-hydroxy-ethyl]-amide], the EC50 amounted to 530 nM.

For the compound `CCOc1ccc([C@H](CO)NC(=O)[C@H]2C[C@@H]2c2ccccc2)cn1` [Compound 33, (1S,2S)-2-Phenyl-cyclopropanecarboxylic acid [(R)-1-(6-ethoxy-pyridin-3-yl)-2-hydroxy-ethyl]-amide], the EC50 was found to be 1000 nM.

In the case of `[2H]C([2H])([2H])C([2H])([2H])Oc1ccc([C@H](CO)NC(=O)[C@H]2C[C@@H]2c2ccc(F)cc2)cn1` [Compound 34, (1S,2S)-2-(4-Fluoro-phenyl)-cyclopropanecarboxylic acid [(R)-1-(6-(1,1,2,2,2-d5)-ethoxy-pyridin-3-yl)-2-hydroxy-ethyl]-amide], the EC50 came to 700 nM.

Take `[2H]C([2H])([2H])COc1ccc([C@H](CO)NC(=O)[C@H]2C[C@@H]2c2ccc(F)cc2)cn1` [Compound 35, (1S,2S)-2-(4-Fluoro-phenyl)-cyclopropanecarboxylic acid [(R)-1-(6-(2,2,2-d3)-ethoxy-pyridin-3-yl)-2-hydroxy-ethyl]-amide]: the concentration giving a half-maximal response (EC50) is 710 nM.

Regarding `[2H]C([2H])(C)Oc1ccc([C@H](CO)NC(=O)[C@H]2C[C@@H]2c2ccccc2)cn1` [Compound 36, (1S,2S)-2-Phenyl-cyclopropanecarboxylic acid [(R)-1-(6-(1,1-d2)-ethoxy-pyridin-3-yl)-2-hydroxy-ethyl]-amide], the 50% effective concentration (EC50) stood at 1600 nM.

With `[2H]C([2H])(C)Oc1ccc([C@H](CO)NC(=O)[C@H]2C[C@@H]2c2ccc(F)cc2)cn1` [Compound 37, (1S,2S)-2-(4-Fluoro-phenyl)-cyclopropanecarboxylic acid [(R)-1-(6-(1,1-d2)-ethoxy-pyridin-3-yl)-2-hydroxy-ethyl]-amide], the EC50 came to 700 nM.

As for `[2H]C([2H])([2H])C([2H])([2H])Oc1ccc([C@H](CO)NC(=O)[C@H]2C[C@@H]2c2ccccc2)cn1` [Compound 38, (1S,2S)-2-Phenyl-cyclopropane carboxylic acid [(R)-1-(6-(1,1,2,2-d5)-ethoxy-pyridin-3-yl)-2-hydroxy-ethyl]-amide], the EC50 was determined as 970 nM.

In the case of `[2H]C([2H])([2H])COc1ccc([C@H](CO)NC(=O)[C@H]2C[C@@H]2c2cccc(F)c2)cn1` [Compound 39, (1S,2S)-2-(3-Fluoro-phenyl)-cyclopropanecarboxylic acid [(R)-1-(6-(2,2,2-d3)-ethoxy-pyridin-3-yl)-2-hydroxy-ethyl]-amide], the half-maximal effective concentration (EC50) worked out at 720 nM.

Regarding `O=C(N[C@@H](CO)c1ccc(OC2CCC2)nc1)[C@H]1C[C@@H]1c1ccccc1` [Compound 40, (1S,2S)-2-Phenyl-cyclopropanecarboxylic acid [(R)-1-(6-cyclobutoxy-pyridin-3-yl)-2-hydroxy-ethyl]-amide], the half-maximal effective concentration (EC50) amounted to 890 nM.

With `O=C(N[C@@H](CO)c1ccc(OC2CCC2)nc1)[C@H]1C[C@@H]1c1cccc(F)c1` [Compound 41, (1S,2S)-2-(3-Fluoro-phenyl)-cyclopropanecarboxylic acid [(R)-1-(6-cyclobutoxy-pyridin-3-yl)-2-hydroxy-ethyl]-amide], the concentration for a half-maximal effect (EC50) worked out at 1600 nM.

As to `O=C(N[C@@H](CO)c1ccc(OC2CCC2)nc1)[C@H]1C[C@@H]1c1ccc(F)cc1` [Compound 42, (1S,2S)-2-(4-Fluoro-phenyl)-cyclopropanecarboxylic acid [(R)-1-(6-cyclobutoxy-pyridin-3-yl)-2-hydroxy-ethyl]-amide], the concentration giving a half-maximal response (EC50) came out at 790 nM.

Turning to `O=C(N[C@@H](CO)c1ccc(O[C@@H]2CCOC2)nc1)[C@H]1C[C@@H]1c1ccccc1` [Compound 43, (1S,2S)-2-Phenyl-cyclopropanecarboxylic acid ((R)-2-hydroxy-1-{6-[(R)-(tetrahydro-furan-3-yl)oxy]-pyridin-3-yl}-ethyl)-amide], the concentration for a half-maximal effect (EC50) was 2900 nM.

As to `O=C(N[C@@H](CO)c1ccc(O[C@H]2CCOC2)nc1)[C@H]1C[C@@H]1c1ccccc1` [Compound 44, (1S,2S)—N-[(1R)-2-hydroxy-1-[6-[(3S)-tetrahydrofuran-3-yl]oxy-3-pyridyl]ethyl]-2-phenyl-cyclopropanecarboxamide], the concentration for a half-maximal effect (EC50) amounted to 4600 nM.

`CCOc1ccc([C@H](COC)NC(=O)[C@H]2C[C@@H]2c2ccccc2)cn1` [Compound 46, (1S,2S)-2-Phenyl-cyclopropanecarboxylic acid [(R)-1-(6-ethoxy-pyridin-3-yl)-2-methoxy-ethyl]-amide]: the EC50 stood at 460 nM.

For the compound `COC[C@H](NC(=O)[C@H]1C[C@@H]1c1ccccc1)c1ccc(O[C@@H]2CCOC2)nc1` [Compound 47, (1S,2S)—N-[(1R)-2-methoxy-1-[6-[(3R)-tetrahydrofuran-3-yl]oxy-3-pyridyl]-ethyl]-2-phenyl-cyclopropanecarboxamide], the EC50 was found to be 1000 nM.

Regarding `COC[C@H](NC(=O)[C@H]1C[C@@H]1c1ccccc1)c1ccc(O[C@H]2CCOC2)nc1` [Compound 48, (1S,2S)—N-[(1R)-2-methoxy-1-[6-[(3S)-tetrahydrofuran-3-yl]oxy-3-pyridyl]ethyl]-2-phenyl-cyclopropanecarboxamide], the EC50 is 1700 nM.

On to `COC[C@H](NC(=O)[C@H]1C[C@@H]1c1ccccc1)c1ccc(OC2CCOCC2)nc1` [Compound 49, (1S,2S)-2-Phenyl-cyclopropanecarboxylic acid {(R)-2-methoxy-1-[6-(tetrahydro-pyran-4-yloxy)-pyridin-3-yl]-ethyl}-amide], for which the EC50 was 1200 nM.

Take `CCOc1ccc([C@H](CO)NC(=O)[C@H]2C[C@@H]2c2ccccc2)nc1` [Compound 52, (1S,2S)-2-Phenyl-cyclopropanecarboxylic acid [(R)-1-(5-ethoxy-pyridin-2-yl)-2-hydroxy-ethyl]-amide]: the concentration for a half-maximal effect (EC50) came out at 2000 nM.

The term melting point denotes the temperature, or range, at which the solid turns liquid. By EC50 is commonly meant the concentration giving half of the maximal effect.

The values above are taken from patent US9889122B2, “Positive allosteric modulators of nicotinic acetylcholine receptor” (H. Lundbeck A/S, priority 2011, dated 2018).
